Target: T1, human GPR120 (Homo sapiens, UniProt Q5NUL3)
T1 construct: expressed in transfected cells
T1 sequence (Q5NUL3 1-361): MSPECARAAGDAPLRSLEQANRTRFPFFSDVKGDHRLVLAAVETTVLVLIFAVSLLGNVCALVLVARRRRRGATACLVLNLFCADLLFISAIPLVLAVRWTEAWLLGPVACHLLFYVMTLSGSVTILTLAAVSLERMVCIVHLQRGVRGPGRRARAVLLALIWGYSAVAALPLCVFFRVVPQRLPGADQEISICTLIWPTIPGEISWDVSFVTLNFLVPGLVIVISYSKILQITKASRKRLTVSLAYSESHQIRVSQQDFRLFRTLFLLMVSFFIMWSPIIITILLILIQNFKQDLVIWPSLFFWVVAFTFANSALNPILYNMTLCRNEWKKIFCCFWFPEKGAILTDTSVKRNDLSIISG
Test: Human GPR120 IP1 Assay (inositol phosphate turnover, CisBio IP-One kit)
Format: cell-based
Conditions: IP1 accumulation in CHO-K1 cells stably expressing the short form of human GPR120; 60 min compound incubation; 4-parameter fit; read-out: hGPR120 EC50
Text: Human GPR120 IP1 Assay Principle
The binding of small molecule agonists to the G-protein-coupled receptor GPR120 activates phospholipase C, and leads to the generation of inositol 1,4,5-trisphosphate (InsP3 or IP3). IP3 is subsequently de-phosphorylated to IP1, which accumulates in cells and is stable in the presence of lithium chloride.
In the present method, agonist-induced activation of the human GPR120 receptor was monitored by measuring the accumulation of IP1 in CHO-K1 cells that were stably expressing the short form of human GPR120 (Accession #NM_001195755). Following agonist addition, GPR120 activation and subsequent accumulation of IP1 was measured using a homogeneous Time Resolved Fluorescence-based ELISA commercially available from CisBio (IP-one ELISA Kit). The IP-One ELISA was a competitive immunoassay which uses IP1 labeled with […] and a terbium cryptate-labeled anti-IP1 monoclonal antibody. […] The signal loss was then back calculated to IP1 concentration using an IP1 standard curve. Determination of IP1 concentration was a direct measure of GPR120 activation and was used to determine compound potency (EC50).
Generation of GPR120-Expressing Cells:
Human GPR120 stable cell-lines were generated in CHO cells. The expression plasmids were transfected using lipofectamine (Life Technologies) following manufacturer's instructions. Stable cell-lines were generated following drug selection and single cell cloning.
Inositol Phosphate Turnover (IP1) Assay:
The assay was performed in 384-well format. CHO cells stably expressing human GPR120 were plated at […] per well in growth medium (DMEM/F12, 10% fetal calf serum). Cell plates were then incubated 16 hours at 37 degrees in a 5% CO2 incubator. Measurement of Inositol Phosphate Turnover (IP1) was performed using the CisBio IP-One kit (Part number 62IPAPEB). After the 16 hour incubation, the growth media was removed by centrifugation using the BlueWasher (AusWasher GUI Ver. v1.0.1.8) Protocol #21-“Light Dry” and 10 ul of stimulation buffer (prepared as described in the kit) was added to each well. In a separate plate, compounds were diluted in DMSO (200-fold over the final concentration in the assay well) and 50 nl was acoustically transferred to the appropriate well in the assay cell plate. The plates were then incubated for 60 minutes at 37 degrees in a 5% CO2 incubator. 10 ul of detection buffer (also prepared as described in the IP-One kit) was added to each well and the plates were incubated at room temperature for 60 minutes in the dark. The plates were then read in a Perkin Elmer EnVision or equivalent reader able to measure FRET. Fluorescent ratio of emission at 665 and 620 nm was then converted to the IP1 concentration by back calculating from an IP1 standard curve prepared at the time of the assay. The data was normalized to % activity using a reference compound, and the EC50 values were determined using a standard 4-parameter fit.

Row | SMILES | EC50 [µM]
1 | O=C(O)CCc1ccc2c(c1)CCN(c1cccc(SC3CCC3)n1)C2 [Example 38, 3-{2-[6-(cyclobutylsulfanyl)pyridin-2-yl]-1,2,3,4-tetrahydroiso-quinolin-6-yl}propanoic acid] | 0.405
2 | O=C(O)CCc1ccc2c(c1F)CCN(c1cc(OC(F)(F)F)ccc1F)C2 [Example 80, 3-{5-fluoro-2-[2-fluoro-5-(trifluoromethoxy)phenyl]-1,2,3,4-tetrahydro-isoquinolin-6-yl}propanoic acid] | 3.12
3 | COc1cc(C#N)c(N2CCc3cc(CCC(=O)O)ccc3C2)cc1OC1CCC1 [Example 42, 3-{2-[2-cyano-5-(cyclobutyloxy)-4-methoxyphenyl]-1,2,3,4-tetra-hydroisoquinolin-6-yl}propanoic acid] | 0.798
4 | C[C@H]1C[C@H](Oc2cc(F)c(F)c(N3CCc4cc([C@@H]5C[C@H]5C(=O)O)ccc4C3)c2)C1 [Example 101, (1R,2R)-2-(2-{2,3-difluoro-5-[(trans-3-methylcyclobutyl)oxy]phenyl}-1,2,3,4-tetrahydroiso-quinolin-6-yl)-cyclopropane-carboxylic acid] | 0.273
5 | Cc1ccc(-n2nc(C)c(C#N)c2N2CCc3cc(OCCO)ccc3C2)cc1 [Example 130, 5-(6-(2-hydroxyethoxy)-3,4-dihydroisoquinolin-2(1H)-yl)-3-methyl-1-(p-tolyl)-1H-pyrazole-4-carbonitrile] | 0.087
6 | Cc1ccc(-n2nc(C)c(F)c2N2CCc3cc(C4CC4C(=O)O)ccc3C2)cc1 (centres unmarked) [Example 96, 2-{2-[4-fluoro-3-methyl-1-(4-methylphenyl)-1H-pyrazol-5-yl]-1,2,3,4-tetrahydroisoquinolin-6-yl}cyclopropanecarboxylic acid] | 0.834
7 | O=C(O)CCc1ccc2c(c1)CCN(c1nc(OC3CCC3)ccc1F)C2 [Example 5, 3-(2-(6-cyclobutoxy-3-fluoropyridin-2-yl)-1,2,3,4-tetrahydro-isoquinolin-6-yl)-propanoic acid] | 0.065
8 | O=C(O)[C@H]1C[C@@H]1c1ccc2c(c1F)CCN(c1cc(OC(F)(F)F)ccc1F)C2 [Example 118, (1S,2S)-2-{5-fluoro-2-[2-fluoro-5-(trifluoromethoxy)phenyl]-1,2,3,4-tetrahydroisoquinolin-6-yl} cyclopropane-carboxylic acid] | 0.215
9 | O=C(O)CCc1ccc2c(c1F)CCN(c1cc(CC3CCC3)ccc1F)C2 [Example 23, 3-{2-[5-(cyclobutylmethyl)-2-fluorophenyl]-5-fluoro-1,2,3,4-tetrahydroisoquinolin-6-yl}propanoic acid] | 0.06
10 | Cc1nc(N2CCc3c(ccc(CCC(=O)O)c3F)C2)nc(OC2CCC2)c1C#N [Example 151, 3-{2-[5-cyano-4-(cyclobutyloxy)-6-methylpyrimidin-2-yl]-5-fluoro-1,2,3,4-tetrahydroisoquino-lin-6-yl}propanoic acid] | 0.034
11 | O=C(O)CCc1ccc2c(c1F)CCN(c1c(-c3ccc(Cl)cc3)nsc1C(F)(F)F)C2 [Example 59, 3-(2-(3-(4-chlorophenyl)-5-(trifluoromethyl)isothiazol-4-yl)-5-fluoro-1,2,3,4-tetrahydroisoquinolin-6-yl)propanoic acid] | 1.63
12 | COc1cc(OC(F)(F)F)cc(N2CCc3cc(CCC(=O)O)ccc3C2)c1F [Example 13, 3-{2-[2-fluoro-3-methoxy-5-(trifluoromethoxy)phenyl]-1,2,3,4-tetrahydroisoquinolin-6-yl}-propanoic acid] | 0.018
13 | N#Cc1ccc(OC(F)(F)F)cc1N1CCc2c(ccc(CCC(=O)O)c2F)C1 [Example 78, 3-{2-[2-cyano-5-(trifluoromethoxy)phenyl]-5-fluoro-1,2,3,4-tetrahydro-isoquinolin-6-yl}propanoic acid] | 0.019
14 | CC(Cc1ccc2c(c1F)CCN(c1cc(OC(F)(F)F)cc(Cl)c1F)C2)C(=O)O (single isomer, unassigned) [Example 69, 3-{2-[3-chloro-2-fluoro-5-(trifluoromethoxy)phenyl]-5-fluoro-1,2,3,4-tetrahydroisoquinolin-6-yl}-2-methyl-propanoic acid] | 0.231
15 | CC1c2ccc(CCC(=O)O)cc2CCN1c1cc(OC2CCC2)cc(F)c1F (centres unmarked) [Example 32, 3-{2-[5-(cyclobutyloxy)-2,3-difluorophenyl]-1-methyl-1,2,3,4-tetrahydroisoquinolin-6-yl}-propanoic acid] | 0.233
16 | Cc1nn(-c2ccc(F)cc2)c(N2CCc3cc(C4CC4C(=O)O)ccc3C2)c1F (centres unmarked) [Example 92, 2-{2-[4-fluoro-1-(4-fluorophenyl)-3-methyl-1H-pyrazol-5-yl]-1,2,3,4-tetrahydroisoquinolin-6-yl} cyclo-propanecarboxylic acid] | 0.482
17 | O=C(O)CCc1ccc2c(c1)CCN(c1cc(OC3CCC3)cc(Cl)c1F)C2 [Example 54, 3-{2-[3-chloro-5-(cyclobutyloxy)-2-fluorophenyl]-1,2,3,4-tetrahydro-isoquinolin-6-yl}propanoic acid] | 1.68
18 | N#Cc1cc(OC(F)(F)F)cc(N2CCc3c(ccc([C@H]4C[C@@H]4C(=O)O)c3F)C2)c1F [Example 107, (1S,2S)-2-(2-(3-cyano-2-fluoro-5-(trifluoromethoxy)phenyl)-5-fluoro-1,2,3,4-tetrahydroisoquinolin-6-yl)cyclopropanecarboxylic acid] | 0.122
19 | Cc1nn(-c2ccc(F)cc2)c(N2CCc3cc(C4CC4C(=O)O)ccc3C2)c1F (centres unmarked) [Example 95, 2-{2-[4-fluoro-1-(4-fluorophenyl)-3-methyl-1H-pyrazol-5-yl]-1,2,3,4-tetrahydroisoquinolin-6-yl} cyclo-propanecarboxylic acid] | 0.491
20 | O=C(O)CCc1ccc2c(c1)CCN(c1cc(OC3CCC3)cc(F)c1F)C2 [Example 11, 3-{2-[5-(cyclobutyloxy)-2,3-difluorophenyl]-1,2,3,4-tetrahydro-isoquinolin-6-yl}propanoic acid] | 0.015
21 | O=C(O)CCc1ccc2c(c1)CCN(c1cc(Oc3cnccn3)ccc1F)C2 [Example 33, 3-{2-[2-fluoro-5-(pyrazin-2-yloxy)phenyl]-1,2,3,4-tetrahydroiso-quinolin-6-yl}propanoic acid] | 0.192
22 | O=C(O)CCc1ccc2c(c1)CCN(c1cc(Oc3ccc(F)cn3)cc(C(F)F)c1F)C2 [Example 35, 3-(2-{3-(difluoromethyl)-2-fluoro-5-[(5-fluoropyridin-2-yl)oxy]phenyl}-1,2,3,4-tetrahydroisoquinolin-6-yl) propanoic acid] | 0.312
23 | COc1cc(OC2CCC2)cc(N2CCc3cc(CCC(=O)O)ccc3C2)c1F [Example 18, 3-{2-[5-(cyclobutyloxy)-2-fluoro-3-methoxyphenyl]-1,2,3,4-tetra-hydroisoquinolin-6-yl}propanoic acid] | 0.024
24 | CO[C@H]1C[C@H](Oc2cc(F)c(F)c(N3CCc4cc(CCC(=O)O)ccc4C3)c2)C1 [Example 20, 3-(2-{2,3-difluoro-5-[(trans-3-methoxycyclobutyl)oxy]phenyl}-1,2,3,4-tetrahydroisoquinolin-6-yl)propanoic acid] | 0.029
25 | CC(CC(=O)O)c1ccc2c(c1)CCN(c1cc(OC(F)(F)F)ccc1F)C2 (single isomer, unassigned) [Example 8, 3-(2-(2-fluoro-5-(trifluoromethoxy)phenyl)-1,2,3,4-tetrahydro-isoquinolin-6-yl)-butanoic acid] | 0.414
26 | CO[C@H]1C[C@H](Oc2cc(C#N)c(F)c(N3CCc4cc([C@@H]5C[C@H]5C(=O)O)ccc4C3)c2)C1 [Example 89, (1R,2R)-2-(2-{3-cyano-2-fluoro-5-[(trans-3-methoxycyclobutyl)oxy]phenyl}-1,2,3,4-tetrahydro-isoquinolin-6-yl)cyclopropane-carboxylic acid] | 0.185

Reference: patent US11161819B2, “Substituted tetrahydroisoquinoline compounds useful as GPR120 agonists” (Merck Sharp & Dohme Corp., priority 2016, dated 2021)
